{
  "source": "paper PMC7765321",
  "about": "“Novel Isoniazid-Carborane Hybrids Active In Vitro against Mycobacterium tuberculosis” (Pharmaceuticals, 2020)",
  "note": "“And” between values parts separate entries of the source, which are not always exact repeats. Equal entries are not always repeated.",
  "data": [
    {"system": "Mtb ΔkatG mutant strain", "assay_type": "cell-based, Mycobacterium tuberculosis", "units": {"katG MIC50": "µM"}, "values": [
      {"compound": "NNC(=O)c1ccncc1", "note": "[4 (INH), pyridine-4-carbohydrazide, reference compound]", "katG MIC50": 1100, "katG MIC99": "1500 µM"},
      {"compound": "N′-((1,2-dicarba-closo-dodecaboran-1-yl)ethyl)isonicotinohydrazide [Compound 23]", "katG MIC50": 97.60, "katG MIC99": "240 µM"},
      {"compound": "N′-((1,2-dicarba-closo-dodecaboran-1-yl)ethylidene)isonicotinohydrazide [Compound 20]", "katG MIC50": 160, "katG MIC99": "240 µM"},
      {"compound": "N′-((1,2-dicarba-closo-dodecaboran-1-yl)propanoyl)isonicotinohydrazide [Compound 8]", "katG MIC50": 150, "katG MIC99": "300 µM"},
      {"compound": "N′-((1,7-dicarba-closo-dodecaboran-1-yl)ethyl)isonicotinohydrazide [Compound 24]", "katG MIC50": 81.30, "katG MIC99": "160 µM"},
      {"compound": "N′-((1,7-dicarba-closo-dodecaboran-1-yl)ethylidene)isonicotinohydrazide [Compound 21]", "katG MIC50": 160, "katG MIC99": "240 µM"},
      {"compound": "N′-((1,7-dicarba-closo-dodecaboran-1-yl)methylidene)isonicotinohydrazide [Compound 14]", "katG MIC50": 260, "katG MIC99": "340 µM"},
      {"compound": "N′-((1,7-dicarba-closo-dodecaboran-1-yl)propanoyl)isonicotinohydrazide [Compound 9]", "katG MIC50": 150, "katG MIC99": "300 µM"},
      {"compound": "N′-((1,12-dicarba-closo-dodecaboran-1-yl)ethyl)isonicotinohydrazide [Compound 25]", "katG MIC50": 3.25, "katG MIC99": "24.4 µM and 24.40 µM"},
      {"compound": "N′-((1,12-dicarba-closo-dodecaboran-1-yl)ethylidene)isonicotinohydrazide [Compound 22]", "katG MIC50": 160, "katG MIC99": "330 µM"},
      {"compound": "N′-((1,12-dicarba-closo-dodecaboran-1-yl)methylidene)isonicotinohydrazide [Compound 15]", "katG MIC50": 510, "katG MIC99": "680 µM"},
      {"compound": "N′-((1,12-dicarba-closo-dodecaboran-1-yl)propanoyl)isonicotinohydrazide [Compound 10]", "katG MIC50": 150, "katG MIC99": "300 µM"},
      {"compound": "N′-((7,8-dicarba-nido-undecaboranyl)methylidene)isonicotinohydrazide [Compound 16]", "katG MIC50": 500, "katG MIC99": ">660 µM"}
    ]}
  ]
}
